# Measured values published in paper PMC7497086, “Fluorophore‐Labeled Cyclic Nucleotides as Potent Agonists of Cyclic Nucleotide‐Regulated Ion Channels” (Chembiochem, 2020).
# “And” between values parts separate entries of the source, which are not always exact repeats. Equal values may be shown once. “Also recorded” adds a separate entry of the source.
# Columns and labels:
# Assay type in all cases: biochemical
# [1] = biological target: T1, Heterotetrameric CNGA2:A4:B1b channels (Rattus norvegicus, UniProt A0A8I5ZN27+Q00195+Q64359); test: Patch-clamp activation of heterotetrameric olfactory CNGA2:A4:B1b channels, inside-out patches of Xenopus oocytes; conditions: for H a (Hill coefficient of activation) / EC50: inside-out patches, +10 mV; for EC50: concentration of half maximum activation
# T1 construct: expressed in transfected cells; host or cells: Xenopus laevis oocytes injected with cRNA (CNGA2:CNGA4:CNGB1b at 2:1:1)
# Experimental: First, the effect of the compounds on olfactory CNG channels with natural composition was tested. […] To determine the potency of the ligands, full concentration‐activation relationships were generated. These relationships were fitted with Equation 1 (Experimental Section), yielding the concentration of half maximum activation (EC 50) and the Hill coefficient (H a).
# (§1) Molecular biology and heterologous expression of CNG and HCN channels: The subunits CNGA2 (accession No. AF126808), CNGA4 (accession no. U12623) and CNGB1b (accession no. AF068572) of rat olfactory channels as well as mouse HCN2 channels (NM008226) were subcloned in front of the T7 promoter of pGEMHEnew. The corresponding cRNAs were produced with the mMESSAGE mMACHINE T7 Kit (Ambion, Austin, TX, USA).
# (§2) Oocytes at stages IV and V were injected with 50–130 ng cRNA encoding either CNGA2, CNGA2 : CNGA4 : CNGB1b (2 : 1 : 1 ratio) or HCN2 channels either manually or mediated by an injection robot (RoboInject®). The injected oocytes were incubated at 18 °C for up to 6 days in Barth's medium containing (in mM) 84 NaCl, 1 KCl, 2.4 NaHCO3, 0.82 MgSO4, 0.41 CaCl2, 0.33 Ca(NO3)2, 7.5 TRIS, cefuroxime (4.0 μg/mL) and penicillin/streptomycin (100 μg/mL), pH 7.4.
# (§3) Electrophysiology: Macroscopic currents were recorded in inside‐out patches of the oocytes expressing hundreds to several thousand of the desired channels by using the patch‐clamp technique. The patch pipettes were pulled from quartz tubing (P‐2000, Sutter Instrument, Novato, USA) with an outer and inner diameter of 1.0 and 0.7 mm (VITROCOM, New Jersey, USA). The corresponding pipette resistance was 0.9–2.3 MΩ. The bath and pipette solution contained (in mM): 150 KCl, 1 EGTA, 20 HEPES (pH 7.4) for CNG channel measurements. For HCN channel measurements the bath solution contained (in mM): 100 KCl, 10 EGTA, 10 HEPES (pH 7.2) and the pipette (in mM) 120 KCl, 10 HEPES, 1 CaCl2 (pH 7.2). All experiments were performed at room temperature by using an Axopatch 200B amplifier (Axon Instruments, Foster City, CA, USA). Electrophysiology was controlled by the Patchmaster‐software (HEKA Elektronik Dr. Schulze GmbH, Lambrecht, Germany). The sampling rate was 5 kHz and the filter implemented in the amplifier (4‐pole Bessel) was set to 2 kHz. Measurements in HCN2 channels were started 3.5 minutes after patch excision, to minimize run down phenomena.18 The solutions with the different ligand concentrations to be studied were applied by a multi‐barrel device to the patches with a flow rate of 0.8 to 1.2 mL/min. The concentration of the fluorescent ligands was verified by UV/Vis spectroscopy.
# (§4) where I is the actual current amplitude and I max the maximum current amplitude at saturating concentration of each cyclic nucleotide. EC 50 is the ligand concentration generating half maximum current and H a the respective Hill coefficient.
# [2] = biological target: T2, Homotetrameric CNGA2 channels (Rattus norvegicus, UniProt Q00195); test: Patch-clamp activation of homotetrameric CNGA2 channels, inside-out patches of Xenopus oocytes; conditions: for H a (Hill coefficient of activation) / EC50: inside-out patches; for EC50: concentration of half maximum activation
# T2 construct: expressed in transfected cells; host or cells: Xenopus laevis oocytes injected with CNGA2 cRNA
# T2 sequence (Q00195 1-664): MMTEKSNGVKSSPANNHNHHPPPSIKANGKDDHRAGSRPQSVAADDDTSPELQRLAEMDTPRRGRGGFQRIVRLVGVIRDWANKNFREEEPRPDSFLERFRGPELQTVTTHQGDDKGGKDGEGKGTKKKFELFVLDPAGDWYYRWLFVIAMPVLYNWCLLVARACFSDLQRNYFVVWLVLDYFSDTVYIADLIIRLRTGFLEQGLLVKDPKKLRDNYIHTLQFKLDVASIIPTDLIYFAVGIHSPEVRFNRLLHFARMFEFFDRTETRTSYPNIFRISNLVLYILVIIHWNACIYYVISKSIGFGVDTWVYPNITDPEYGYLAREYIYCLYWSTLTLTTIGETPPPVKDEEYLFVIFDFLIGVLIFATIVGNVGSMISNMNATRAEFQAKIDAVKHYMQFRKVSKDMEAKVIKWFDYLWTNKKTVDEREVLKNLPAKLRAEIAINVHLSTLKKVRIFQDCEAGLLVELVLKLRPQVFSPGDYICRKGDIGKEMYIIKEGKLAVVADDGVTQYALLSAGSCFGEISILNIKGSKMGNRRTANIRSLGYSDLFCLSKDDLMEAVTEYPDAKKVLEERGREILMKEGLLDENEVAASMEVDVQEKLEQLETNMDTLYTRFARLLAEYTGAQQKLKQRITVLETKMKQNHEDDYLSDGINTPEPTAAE
# Description: Moreover, we studied the effect of the nucleotide derivatives on homotetrameric CNGA2 channels.
# as §1, §2, §3, §4
# [3] = biological target: T3, homotetrameric HCN2 channels (Mus musculus, UniProt O88703); test: Patch-clamp activation of homotetrameric HCN2 channels, inside-out patches of Xenopus oocytes; conditions: 5 μM ligand; pulse from -30 mV to -130 mV; compared with saturating cAMP (20 μM)
# T3 construct: expressed in transfected cells; host or cells: Xenopus laevis oocytes injected with HCN2 cRNA
# T3 sequence (O88703 1-863): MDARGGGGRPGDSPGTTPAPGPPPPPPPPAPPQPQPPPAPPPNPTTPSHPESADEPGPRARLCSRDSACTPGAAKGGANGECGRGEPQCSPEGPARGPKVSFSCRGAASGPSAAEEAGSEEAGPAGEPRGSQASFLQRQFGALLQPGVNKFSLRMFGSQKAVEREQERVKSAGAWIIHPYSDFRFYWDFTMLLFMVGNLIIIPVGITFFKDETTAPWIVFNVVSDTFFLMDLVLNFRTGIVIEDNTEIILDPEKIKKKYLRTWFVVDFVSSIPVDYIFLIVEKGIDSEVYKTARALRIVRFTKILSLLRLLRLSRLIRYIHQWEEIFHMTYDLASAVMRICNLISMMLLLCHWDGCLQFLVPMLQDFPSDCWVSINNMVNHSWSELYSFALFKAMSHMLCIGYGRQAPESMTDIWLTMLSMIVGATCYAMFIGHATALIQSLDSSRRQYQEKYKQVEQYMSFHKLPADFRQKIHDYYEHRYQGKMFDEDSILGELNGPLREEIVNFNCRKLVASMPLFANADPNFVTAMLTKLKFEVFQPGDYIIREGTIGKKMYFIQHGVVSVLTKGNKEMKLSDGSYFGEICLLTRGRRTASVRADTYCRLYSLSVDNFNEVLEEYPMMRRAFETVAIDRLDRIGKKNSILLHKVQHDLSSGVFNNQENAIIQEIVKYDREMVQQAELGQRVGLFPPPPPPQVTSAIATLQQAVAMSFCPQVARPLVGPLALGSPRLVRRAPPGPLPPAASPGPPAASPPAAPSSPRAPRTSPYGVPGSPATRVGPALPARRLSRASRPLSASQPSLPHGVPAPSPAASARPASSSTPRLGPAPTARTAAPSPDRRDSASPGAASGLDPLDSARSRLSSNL
# Experimental: On these channels the potency of cGMP and its derivatives is negligibly small. These measurements were performed in inside‐out patches as well. The channels were activated from a holding potential of −30 mV by a hyperpolarizing voltage pulse to −130 mV, followed by a short pulse to −100 mV, as described in the inset of Figure 3A. All recordings were carried out in the absence of a ligand at first and then with a solution containing 5 μM of the cyclic nucleotide to be tested.
# as §1
# The oocytes were incubated for 105 min in Ca^2+‐free Barth's solution containing collagenase A (3 mg/mL; Roche, Grenzach‐Wyhlen, Germany) and (in mM) 82.5 NaCl, 2 KCl, 1 MgCl2, 5 HEPES, pH 7.4. […]
# Electrophysiology: Macroscopic currents were recorded in inside‐out patches of the oocytes expressing hundreds to several thousand of the desired channels by using the patch‐clamp technique. […]
# T1 sequence (Q64359 whole entry, one chain of several): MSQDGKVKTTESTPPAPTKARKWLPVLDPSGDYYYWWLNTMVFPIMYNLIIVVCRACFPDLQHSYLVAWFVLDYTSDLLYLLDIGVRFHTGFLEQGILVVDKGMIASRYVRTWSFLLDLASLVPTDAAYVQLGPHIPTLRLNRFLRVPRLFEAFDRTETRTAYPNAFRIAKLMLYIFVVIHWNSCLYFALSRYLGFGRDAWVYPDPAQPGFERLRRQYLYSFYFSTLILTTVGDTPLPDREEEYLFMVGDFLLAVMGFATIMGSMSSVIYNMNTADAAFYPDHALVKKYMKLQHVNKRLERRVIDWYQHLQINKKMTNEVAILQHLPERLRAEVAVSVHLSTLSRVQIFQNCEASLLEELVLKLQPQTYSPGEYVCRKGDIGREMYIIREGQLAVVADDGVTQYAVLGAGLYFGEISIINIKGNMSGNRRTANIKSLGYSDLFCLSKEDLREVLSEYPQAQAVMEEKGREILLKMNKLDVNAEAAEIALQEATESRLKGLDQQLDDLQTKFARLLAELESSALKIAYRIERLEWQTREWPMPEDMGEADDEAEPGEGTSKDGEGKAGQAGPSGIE
# T1 sequence (A0A8I5ZN27 1-858 isoform A0A8I5ZN27-2, one chain of several): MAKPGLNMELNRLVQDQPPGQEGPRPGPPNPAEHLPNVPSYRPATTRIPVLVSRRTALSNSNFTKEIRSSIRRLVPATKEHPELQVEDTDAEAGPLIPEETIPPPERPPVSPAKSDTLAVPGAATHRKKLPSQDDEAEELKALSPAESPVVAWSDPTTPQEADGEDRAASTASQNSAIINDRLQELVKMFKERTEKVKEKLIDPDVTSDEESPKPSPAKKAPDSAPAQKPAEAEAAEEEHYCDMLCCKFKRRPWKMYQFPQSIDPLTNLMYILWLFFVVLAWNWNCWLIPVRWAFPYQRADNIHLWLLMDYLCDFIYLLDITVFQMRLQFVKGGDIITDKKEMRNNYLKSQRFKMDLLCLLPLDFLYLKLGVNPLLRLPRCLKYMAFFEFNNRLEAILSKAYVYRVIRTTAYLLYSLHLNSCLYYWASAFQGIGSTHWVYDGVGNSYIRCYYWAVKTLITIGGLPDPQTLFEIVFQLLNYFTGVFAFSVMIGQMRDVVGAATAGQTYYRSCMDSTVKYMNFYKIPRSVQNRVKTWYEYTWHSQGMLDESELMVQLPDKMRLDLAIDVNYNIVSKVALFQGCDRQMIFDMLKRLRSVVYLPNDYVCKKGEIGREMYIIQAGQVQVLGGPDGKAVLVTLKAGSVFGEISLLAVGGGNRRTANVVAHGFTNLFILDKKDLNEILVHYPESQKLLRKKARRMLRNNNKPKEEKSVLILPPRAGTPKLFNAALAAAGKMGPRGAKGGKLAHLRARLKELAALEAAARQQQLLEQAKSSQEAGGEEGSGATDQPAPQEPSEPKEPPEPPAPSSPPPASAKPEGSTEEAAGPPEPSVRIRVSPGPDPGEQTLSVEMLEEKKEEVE
Structure (SMILES),H a (Hill coefficient of activation) [1],EC50 [1] [nM],H a (Hill coefficient of activation) [2],EC50 [2] [nM],EC 50 (in words) [2],agonist efficacy ([1]; current maxima normalized to saturating cAMP (500 μM)),effect at elevated concentrations ([1]; elevated concentrations),efficacy of channel activation ([2]; relative to maximum activation),effect on HCN2 current (activation speed and current amplitude) [3]
CC1(C)C2=C3C=C4C5=[N+](CCC4OC3CCN2c2ccc(CC(=O)NCCCCCc3ccc(Sc4nc6c(N)ncnc6n4[C@@H]4O[C@@H]6COP(=O)(O)O[C@H]6[C@H]4O)cc3)cc21)c1ccc(S(=O)(=O)[O-])cc1C5(C)C (stereo partly shown) [Compound 7],2.26±0.29,900 ± 40,1.39 and 1.39±0.07,10000 ± 500,,,,did not generate maximum activation at 100 μM,
NCCCCCc1ccc(Sc2nc3c(=O)[nH]c(N)nc3n2[C@@H]2O[C@@H]3COP(=O)(O)O[C@H]3[C@H]2O)cc1 [Compound 9],1.55±0.08,370 ± 10,2.52±0.08,250 ± 10,nanomolar range,,,,
"Nc1ncnc2c1ncn2[C@@H]1O[C@@H]2COP(=O)(O)O[C@H]2[C@H]1O [cAMP, reference compound]",2.08±0.12,,,,,,,,
NCCCCCc1ccc(-c2nc3c(N)ncnc3n2[C@@H]2O[C@@H]3COP(=O)(O)O[C@H]3[C@H]2O)cc1 [Compound 12],2.23±0.05,10700 ± 100,2.14±0.10,16300 ± 500,,only a partial agonist,,,no effect; also recorded: almost ineffective
NCCCCCc1ccc(Sc2nc3c(N)ncnc3n2[C@@H]2O[C@@H]3COP(=O)(O)O[C@H]3[C@H]2O)cc1 [Compound 6],2.25±0.08,750 ± 10,2.51±0.05,4720 ± 40,,,inhibitory effect,,accelerated the current and enhanced the amplitude

# Continued, in another order:
H a (Hill coefficient of activation) [1],EC50 [1] [nM],H a (Hill coefficient of activation) [2],EC50 [2] [nM],EC 50 (in words) [2],agonist efficacy ([1]; current maxima normalized to saturating cAMP (500 μM)),effect at elevated concentrations ([1]; elevated concentrations),Structure (SMILES),efficacy of channel activation ([2]; relative to maximum activation),effect on HCN2 current (activation speed and current amplitude) [3]
2.11±0.23,1360 ± 70,2.48±0.05,1770 ± 20,,,,"Nc1nc2c(ncn2[C@@H]2O[C@@H]3COP(=O)(O)O[C@H]3[C@H]2O)c(=O)[nH]1 [cGMP, reference compound]",,
1.74±0.11,7020 ± 260,2.28±0.28,2410 ± 150,,,,NCCCCCc1ccc(-c2nc3c(=O)[nH]c(N)nc3n2[C@@H]2O[C@@H]3COP(=O)(O)O[C@H]3[C@H]2O)cc1 [Compound 13],,
